In US20230139826A1 (NONO INC., priority 2020, published 2023):
Marks after values point to notes of the source that are not given here. Residues, ends and D or L forms follow the SMILES beside them.

Legend:
[1] = system: acute ischemic stroke; assay: ESCAPE-NA1 trial: efficacy of intravenous nerinetide in patients with acute ischemic stroke undergoing thrombectomy; assay type: in vivo, human
Procedure: ESCAPE-NA1 was a multicenter, randomized, double-blinded, placebo-controlled, parallel group, single-dose study to determine the efficacy and safety of intravenous nerinetide in patients with acute ischemic stroke who were selected to undergo thrombectomy. Patients were randomized in a 1:1 ratio to receive a single, 2.6 mg/kg (up to a maximum dose of 270 mg) intravenous dose of nerinetide or saline placebo delivered over 10+1 minutes. Nerinetide and placebo were prepared as colorless solutions in numbered, refrigerated vials.
Randomization in a 1:1 ratio to nerinetide or placebo occurred using a real-time, dynamic, Internet-based, stratified randomized minimization procedure. Stratification occurred on the use of intravenous alteplase (yes/no) and declared initial thrombectomy device (stent-retriever or aspiration device). The choice to stratify was based upon the possibility of drug-drug or drug-device interactions. Randomized minimization occurring within strata aimed to achieve distribution balance with regard to age, sex, baseline National Institutes of Health Stroke Scale (NIHSS) score (range, 0 to 42, with higher scores indicating greater stroke severity), site of arterial occlusion, baseline Alberta Stroke Program Early Computed Tomography Score (ASPECTS; range, 0 to 10, with 1 point subtracted for any evidence of early ischemic change in each defined region on the CT scan) and clinical site.
Eligible patients were adults aged 18 or greater with a disabling ischemic stroke at the time of randomization (baseline NIHSS>5), who had been functioning independently in the community (Barthel Index score>90 [range, 0 to 100, with higher scores indicating a greater ability to complete activities of daily living])^1 before the stroke. Enrollment occurred up to 12 hours after the onset of stroke symptoms (last-seen-well time). Non-contrast CT and multiphase CTA were performed at the thrombectomy center to identify patients with a confirmed proximal intracranial artery occlusion, defined as the intracranial internal carotid artery or the first segment of the middle cerebral artery or both.
After qualifying imaging, patients were treated with rapid EVT using currently available devices. Some patients received intravenous alteplase according to usual care following national or regional guidelines, before or during EVT, at a primary hospital prior to transfer or at the endovascular center. Interpretation of treatment guidelines was at the discretion of the treating team. Patients treated with alteplase more than 4.5 hours from stroke onset were not excluded from the trial for this reason alone. Patients had to meet inclusion and exclusion criteria at the EVT hospital. Patients received trial drug, as a single dose of 2.6 mg/kg to a maximum dose of 270 mg, based upon estimated or actual weight (if known) using a dedicated intravenous line. The trial drug was administered as soon as possible after randomization.
Time targets were imaging to randomization 30 minutes, imaging to study drug administration ≤60 minutes, and imaging to arterial access/puncture ≤60 minutes. Targets from imaging to reperfusion were 90th percentile ≤90 minutes and a median at ≤75 minutes. In general, the order of events was imaging to determine eligibility for EVT treatment, study randomization, administration of alteplase (in some patients), administration of nerinetide, and performance of EVT.
The primary outcome was good outcome as defined by a score of 0-2 on the modified Rankin scale (mRS) (range, 0 [no symptoms] to 6 [death]) for the assessment of neurologic functional disability^2 assessed in person or, if an in-person visit was not possible, by telephone, at 90 days after randomization by personnel certified in the scoring of the mRS. […]

[2] = Plasma half-life in humans; assay type: in vivo; details: intravenous, 2.6 mg/kg, human, human equivalent concentrations
[3] = Alteplase stratum, nerinetide n = 330
[4] = No Alteplase stratum, nerinetide n = 219
[5] = No Alteplase stratum, nerinetide n = 219, missing imputed as deaths
[6] = all patients (ITT), nerinetide vs placebo, 90 days
[7] = all patients, nerinetide group n = 549, 90 days
[8] = all patients, nerinetide vs placebo

CC[C@H](C)[C@H](NC(=O)[C@H](CO)NC(=O)[C@H](CO)NC(=O)[C@H](CC(C)C)NC(=O)[C@H](CCCCN)NC(=O)[C@H](CCCN=C(N)N)NC(=O)[C@H](CCCN=C(N)N)NC(=O)[C@H](CCCN=C(N)N)NC(=O)[C@H](CCC(N)=O)NC(=O)[C@H](CCCN=C(N)N)NC(=O)[C@H](CCCN=C(N)N)NC(=O)[C@H](CCCCN)NC(=O)[C@H](CCCCN)NC(=O)[C@H](CCCN=C(N)N)NC(=O)CNC(=O)[C@@H](N)Cc1ccc(O)cc1)C(=O)N[C@@H](CCC(=O)O)C(=O)N[C@@H](CO)C(=O)N[C@@H](CC(=O)O)C(=O)N[C@H](C(=O)O)C(C)C [Nerinetide] (H-YGRKKRRQRRRKLSSIESDV-OH)
BI 95-100, unadjusted RR (CI95) ([1]; Alteplase stratum): 0.96 (0.86-1.07) | Deaths without imputation, RR ([1]; Alteplase stratum): 1.24 | Infarct volume (cubic root transformation), beta coefficient ([1]; Alteplase stratum): 0.20 (−0.56 to 0.95)** ml^1/3 | Infarct volume (median) ([1]; Alteplase stratum): 22.7 mL | Mortality, unadjusted RR (CI95) ([1]; Alteplase stratum): 1.14 (0.74-1.76) | NIHSS 0-2, unadjusted RR (CI95) ([1]; Alteplase stratum): 0.92 (0.81-1.04) | mRS 0-1, unadjusted RR (CI95) ([1]; Alteplase stratum): 0.92 (0.77-1.10) | mRS 0-2, unadjusted RR (CI95) ([1]; Alteplase stratum): 0.96 (0.85-1.07) | BI 95-100, adjusted risk ratio (95% confidence interval) ([1]; Alteplase stratum (n = 659)): 0.97 (0.88-1.08) | Mortality, adjusted risk ratio (95% confidence interval) ([1]; Alteplase stratum (n = 659)): 1.08 (0.70-1.66) | NIHSS 0-2, adjusted risk ratio (95% confidence interval) ([1]; Alteplase stratum (n = 659)): 0.92 (0.82-1.04) | mRS 0-1, adjusted risk ratio (95% confidence interval) ([1]; Alteplase stratum (n = 659)): 0.91 (0.78-1.08) | mRS 0-2, adjusted risk ratio (95% confidence interval) ([1]; Alteplase stratum (n = 659), nerinetide vs placebo, 90 days): 0.97 (0.87-1.08) | mRS 0-2, adjusted risk ratio (95% confidence interval) ([1]; Alteplase stratum (n = 659), nerinetide vs placebo, 90 days, listed as nerinetide): 0.97 | BI 95-100, patients number (proportion) [1, 3]: 213 (64.5%) | Mortality, patients number (proportion) [1, 3]: 39 (11.8%) | NIHSS 0-2, patients number (proportion) [1, 3]: 191 (57.9%) | mRS 0-1, patients number (proportion) [1, 3]: 138 (41.8%) | mRS 0-2, patients number (proportion) [1, 3]: 207 (62.7%) | mRS 0-2, patients number (proportion) ([1]; Alteplase stratum, nerinetide n = 330, listed as nerinetide): 62.7% | Infarct volume, absolute volume difference of medians ([1]; Alteplase stratum, nerinetide vs placebo): 1.6* ml | BI 95-100, unadjusted RR (CI95) ([1]; No Alteplase stratum): 1.16 (0.98-1.38) | Deaths without imputation, RR ([1]; No Alteplase stratum): 0.60 | Infarct volume (cubic root transformation), beta coefficient ([1]; No Alteplase stratum): −0.98 (−1.91 to −0.05)** ml^1/3 | Infarct volume (median) ([1]; No Alteplase stratum): 26.7 mL | Mortality, unadjusted RR (CI95) ([1]; No Alteplase stratum): 0.63 (0.41-0.97) | NIHSS 0-2, unadjusted RR (CI95) ([1]; No Alteplase stratum): 1.18 (1.00-1.40) | mRS 0-1, unadjusted RR (CI95) ([1]; No Alteplase stratum): 1.13 (0.88-1.45) | mRS 0-2, unadjusted RR (CI95) ([1]; No Alteplase stratum): 1.19 (1.01-1.41) | BI 95-100, adjusted risk ratio (95% confidence interval) ([1]; No Alteplase stratum (n = 446)): 1.14 (0.97-1.34) | Mortality, adjusted risk ratio (95% confidence interval) ([1]; No Alteplase stratum (n = 446)): 0.66 (0.44-0.99) | NIHSS 0-2, adjusted risk ratio (95% confidence interval) ([1]; No Alteplase stratum (n = 446)): 1.14 (0.97-1.34) | mRS 0-1, adjusted risk ratio (95% confidence interval) ([1]; No Alteplase stratum (n = 446)): 1.04 (0.82-1.31) | mRS 0-2, adjusted risk ratio (95% confidence interval) ([1]; No Alteplase stratum (n = 446), nerinetide vs placebo, 90 days): 1.18 (1.01-1.38) | mRS 0-2, adjusted risk ratio (95% confidence interval) ([1]; No Alteplase stratum (n = 446), nerinetide vs placebo, 90 days, listed as nerinetide): 1.18 | BI 95-100, number of patients [1, 4]: 128 | BI 95-100, proportion of patients [1, 4]: (58.4%) | NIHSS 0-2, number of patients [1, 4]: 129 | NIHSS 0-2, proportion of patients [1, 4]: (58.9%) | mRS 0-1, number of patients [1, 4]: 84 | mRS 0-1, proportion of patients [1, 4]: (38.4%) | mRS 0-2, number of patients [1, 4]: 130 | mRS 0-2, proportion of patients [1, 4]: (59.3%) | Mortality, number of patients [1, 5]: 28 | Mortality, proportion of patients [1, 5]: (12.8%) | mRS 0-2, proportion of patients ([1]; No Alteplase stratum, nerinetide n = 219, listed as nerinetide): 59.3% | Infarct volume, absolute volume difference of medians ([1]; No Alteplase stratum, nerinetide vs placebo): −12.5* ml | mRS 0-2, adjusted risk ratio (95% confidence interval) ([1]; all patients (ITT), nerinetide 2.6 mg/kg iv vs placebo, 90 days): 1.04 (0.96-1.14) | mRS 0-2, adjusted risk ratio (95% confidence interval) ([1]; all patients (ITT), nerinetide 2.6 mg/kg iv vs placebo, 90 days, listed as nerinetide): 1.04 | BI 95-100, adjusted risk ratio (95% confidence interval) [1, 6]: 1.03 (0.94-1.12) | Mortality, adjusted risk ratio (95% confidence interval) [1, 6]: 0.84 (0.63-1.13) | NIHSS 0-2, adjusted risk ratio (95% confidence interval) [1, 6]: 1.01 (0.92-1.11) | mRS 0-1, adjusted risk ratio (95% confidence interval) [1, 6]: 0.98 (0.85-1.12) | Infarct volume (median) ([1]; all patients, 24-hour imaging): 23.7 mL | Infarct volume (median) ([1]; all patients, 24-hour imaging, listed as nerinetide): 26.0 (iqr 6.6-101.5) ml | BI 95-100, patients number (proportion) [1, 7]: 341 (62.1%) | NIHSS 0-2, patients number (proportion) [1, 7]: 320 (58.3%) | mRS 0-1, patients number (proportion) [1, 7]: 222 (40.4%) | mRS 0-2, patients number (proportion) [1, 7]: 337 (61.4%) | Mortality, patients number (proportion) ([1]; all patients, nerinetide group n = 549, 90 days, missing outcomes imputed as deaths): 67 (12.2%) | mRS 0-2, patients number (proportion) ([1]; all patients, nerinetide group n = 549, 90 days, listed as nerinetide): 61.4% | Infarct volume (cubic root transformation), adjusted beta coefficient ([1]; all patients, nerinetide vs control, 24-hour imaging): −0.29 (−0.87 to 0.30)** ml^1/3 | BI 95-100, unadjusted RR (CI95) [1, 8]: 1.03 (0.94-1.13) | Deaths without imputation, RR [1, 8]: 0.87 | Infarct volume, absolute volume difference of medians [1, 8]: −2.3* ml | NIHSS 0-2, unadjusted RR (CI95) [1, 8]: 1.01 (0.92-1.12) | mRS 0-1, unadjusted RR (CI95) [1, 8]: 0.99 (0.86-1.15) | mRS 0-2, unadjusted RR (CI95) [1, 8]: 1.04 (0.94-1.14) | Mortality, unadjusted RR (CI95) ([1]; all patients, nerinetide vs placebo, missing imputed as deaths): 0.85 (0.63-1.15) | Infarct volume, mean ([1]; alteplase group): 73.3 mL | Infarct volume, mean ([1]; no alteplase group): 67.8 mL | Number-needed-to-treat ([1]; no-alteplase stratum): 10-11 patients | absolute benefit ([1]; no-alteplase stratum): 9.4% | absolute risk reduction in mortality at 90 days ([1]; stratum that did not receive alteplase): 7.5% | hazard of death, adj HR ([1]; stratum that did not receive alteplase, Cox model): 0.56 | half-life [2]: 5 to 10 min
